From patent US11149031B2, “Substituted N-(3-fluoropropyl)-pyrrolidine compounds, processes for their preparation and therapeutic uses thereof” (SANOFI, priority 2016, dated 2021)
pIC50: −log10 of the molar value. Read-outs that look alike come from different tables or passages of the source.

Tests used:
[1] = target: His6-ERα298-554 WT (ERα ligand-binding domain) (Homo sapiens (Human), UniProt P03372); assay: Test A: biochemical antagonist activity, LanthaScreen TR-FRET ERα coactivator assay, WT; conditions: read-out: Antagonism WT IC50
Outline: (§1)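 His6-ERα LBD (aa 298–554), 0.5 nM, with Tb-anti-His6 antibody, 250 nM PGC1a peptide and 3 nM (or 10 nM) estradiol in pH 7.4 potassium phosphate/DTT buffer; incubated with compound overnight at room temperature. IC50 from 4-parameter logistic fit of TR-FRET 520:495 nm ratio.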

[2] = target: His6-ERα298-554 D538G mutant (ERα ligand-binding domain) (Homo sapiens (Human), UniProt P03372, D538G); assay: Test A: biochemical antagonist activity, LanthaScreen TR-FRET ERα coactivator assay, D538G mutant; conditions: read-out: Antagonism D538G IC50
Outline: as §1

[3] = target: His6-ERα298-554 Y537S mutant (ERα ligand-binding domain) (Homo sapiens (Human), UniProt P03372, Y537S); assay: Test A: biochemical antagonist activity, LanthaScreen TR-FRET ERα coactivator assay, Y537S mutant; conditions: read-out: Antagonism Y537S IC50
Outline: as §1

[4] = tested on: MCF7 cells (breast tumor cells) WT; assay: Test B: cell proliferation/viability assay (CellTiter-Glo) on MCF7 WT; assay type: cell-based; conditions: Homo sapiens, MCF7, 168 h, 7 days of compound exposure
Outline: (§2)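 Seven-day compound exposure, 9 concentrations from 3 to 0.000001 μM, in phenol red-free medium with 5% charcoal-stripped serum. ER Tyr537Ser and Asp538Gly lines derive from transfected MCF7 selected to grow without estradiol. Viability from CellTiter-Glo luminescence, background-corrected, as percent of untreated.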

[5] = tested on: MCF7 cells expressing mutant estrogen receptor Tyr 537 Ser; assay: Test B: cell proliferation/viability assay (CellTiter-Glo) on MCF7 Tyr 537 Ser mutant; assay type: cell-based; conditions: Homo sapiens, MCF7, 168 h, MCF7 cells expressing ER Tyr 537 Ser mutant, 7 days of compound exposure, read-out: proliferation MCF7 Y537S IC50
Outline: as §2

[6] = tested on: MCF7 cells expressing mutant estrogen receptor Asp 538 Gly; assay: Test B: cell proliferation/viability assay (CellTiter-Glo) on MCF7 Asp 538 Gly mutant; assay type: cell-based; conditions: Homo sapiens, MCF7, 168 h, MCF7 cells expressing ER Asp 538 Gly mutant, 7 days of compound exposure, read-out: proliferation MCF7 D538G IC50
Outline: as §2

[7] = target: ERα in MCF7 cells (Homo sapiens (Human), UniProt P03372); assay: Test C: estrogen receptor degradation activity, ERα in cell western assay in MCF7 cells; assay type: cell-based; conditions: for DC50: 4 hours post compound addition, ERα in cell western, read-out: Degradation IC50; for % Degradation at 3 μM: 4 hours, relative to fulvestrant
Outline: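 In-cell western: ERα level (green) against DNA stain Syto-64 (red) by integrated intensity. MCF7 cells in hormone-depleted medium exposed 4 h to compound at 3-0.000018 μM final (1:5 series); fulvestrant 0.1 μM as positive control.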

[8] = asterisk (*): protocol using 10 nM estradiol

Chain of His6-ERα298-554 Y537S mutant (ERα ligand-binding domain) (P03372 298-554 Y537S): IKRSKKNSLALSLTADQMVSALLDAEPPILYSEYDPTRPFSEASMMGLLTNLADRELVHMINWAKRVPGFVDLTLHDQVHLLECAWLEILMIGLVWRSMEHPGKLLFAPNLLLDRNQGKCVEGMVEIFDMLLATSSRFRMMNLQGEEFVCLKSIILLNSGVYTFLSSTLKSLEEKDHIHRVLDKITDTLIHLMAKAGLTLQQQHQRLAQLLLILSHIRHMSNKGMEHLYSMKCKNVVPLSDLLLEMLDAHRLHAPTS
Chain of ERα in MCF7 cells (P03372 whole entry): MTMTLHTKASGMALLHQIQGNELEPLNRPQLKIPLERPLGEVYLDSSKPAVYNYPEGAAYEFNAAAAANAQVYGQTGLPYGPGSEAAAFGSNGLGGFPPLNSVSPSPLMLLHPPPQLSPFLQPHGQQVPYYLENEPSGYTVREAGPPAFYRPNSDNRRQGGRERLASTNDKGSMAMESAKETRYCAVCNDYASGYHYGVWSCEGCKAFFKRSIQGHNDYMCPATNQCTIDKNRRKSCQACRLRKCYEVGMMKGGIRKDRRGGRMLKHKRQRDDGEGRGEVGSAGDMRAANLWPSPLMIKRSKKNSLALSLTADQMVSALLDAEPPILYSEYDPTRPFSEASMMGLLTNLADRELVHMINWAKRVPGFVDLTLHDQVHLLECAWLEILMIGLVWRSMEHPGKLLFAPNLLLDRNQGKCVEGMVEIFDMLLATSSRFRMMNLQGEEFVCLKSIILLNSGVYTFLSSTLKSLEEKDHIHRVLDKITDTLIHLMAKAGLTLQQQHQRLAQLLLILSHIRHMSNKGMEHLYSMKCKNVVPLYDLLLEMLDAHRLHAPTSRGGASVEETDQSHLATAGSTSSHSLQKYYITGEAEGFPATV
Chain of His6-ERα298-554 WT (ERα ligand-binding domain) (P03372 298-554): as the sequence (P03372 298-554 Y537S) above, with S240Y counted along it
Chain of His6-ERα298-554 D538G mutant (ERα ligand-binding domain) (P03372 298-554 D538G): as the sequence (P03372 298-554 Y537S) above, with S240Y, D241G counted along it

Compound | pIC50 [1, 8] | pIC50 [2, 8] | pIC50 [3, 8] | pIC50 [4] | pIC50 [5] | pIC50 [6] | DC50 [7] | % Degradation at 3 μM [7] | pIC50 ([1]; protocol with 3 nM estradiol) | pIC50 ([2]; protocol with 3 nM estradiol) | pIC50 ([3]; protocol with 3 nM estradiol)
Oc1ccc2c(c1)SCCC(c1ccc(OC(F)(F)F)cc1)=C2c1ccc(O[C@H]2CCN(CCCF)C2)cc1 [Example 214, 5-[4-[(3S)-1-(3-fluoropropyl)pyrrolidin-3-yl]oxyphenyl]-4-[4-(trifluoromethoxy)phenyl]-2,3-dihydro-1-benzothiepin-8-ol] | 7.42 | 6.27 | 6.34 | 9.40 | 8.22 | 9.15 | 1 nM | 82% |  |  | 
CCOc1nccc(C2=C(c3ccc(O[C@H]4CCN(CCCF)C4)cc3)c3ccc(O)cc3SC2)c1F [Example 69, 3-(2-ethoxy-3-fluoro-4-pyridyl)-4-[4-[(3S)-1-(3-fluoropropyl)pyrrolidin-3-yl]oxyphenyl]-2H-thiochromen-7-ol] | 5.80 | < 5.40 | < 5.40 | 9.70 | 9.10 | 9.70 | 0.2 nM | 81% |  |  | 
Oc1ccc2c(c1)OCCC(c1ccc(OC3CC3)cc1)=C2c1ccc(O[C@H]2CCN(CCCF)C2)cc1 [Example 149, 4-[4-(cyclopropoxy)phenyl]-5-[4-[(3S)-1-(3-fluoropropyl)pyrrolidin-3-yl]oxyphenyl]-2,3-dihydro-1-benzoxepin-8-ol] | 7.64 | 6.52 | 6.54 | 9.30 | 7.92 | 8.70 | 0.9 nM | 91% |  |  | 
COc1ccc(C2=C(c3ccc(O[C@H]4CCN(CCCF)C4)cc3)c3ccc(O)cc3SC2)cc1F [Example 23, 3-(3-fluoro-4-methoxy-phenyl)-4-[4-[(3S)-1-(3-fluoropropyl)pyrrolidin-3-yl]oxyphenyl]-2H-thiochromen-7-ol] | 7.30 | 6.10 | 6.17 | 8.15 | < 6.00 | 7.85 | 0.3 nM | 93% |  |  | 
Oc1ccc2c(c1)CCCC(c1ccc(Cl)c(F)c1)=C2c1cnc(O[C@H]2CCN(CCCF)C2)cn1 [Example 243, 6-(4-chloro-3-fluoro-phenyl)-5-[5-[(3S)-1-(3-fluoropropyl)pyrrolidin-3-yl]oxypyrazin-2-yl]-8,9-dihydro-7H-benzo[7]annulen-2-ol] | 7.92 | 6.41 | 6.75 | 9.70 | 8.52 | 9.30 | 0.3 nM | 91% |  |  | 
Oc1ccc2c(c1)SCC(c1ccc(OC(F)(F)F)cc1)=C2c1ccc(O[C@H]2CCN(CCCF)C2)cc1 [Example 54, 4-[4-[(3S)-1-(3-fluoropropyl)pyrrolidin-3-yl]oxyphenyl]-3-[4-(trifluoromethoxy)phenyl]-2H-thiochromen-7-ol] | 6.61 | 5.52 | 5.58 | 8.52 | 7.68 | 8.52 | 1 nM | 74% |  |  | 
CCOc1ccc(C2=C(c3ccc(O[C@H]4CCN(CCCF)C4)cc3)c3ccc(O)cc3SCC2)c(F)c1Cl [Example 221, 4-(3-chloro-4-ethoxy-2-fluoro-phenyl)-5-[4-[(3S)-1-(3-fluoropropyl)pyrrolidin-3-yl]oxyphenyl]-2,3-dihydro-1-benzothiepin-8-ol] | 7.96 | 6.58 | 6.88 | 9.30 | 8.10 | 9.22 | 0.2 nM | 84% |  |  | 
Oc1ccc2c(c1)SCCC(c1ccc(OC(F)F)c(F)c1)=C2c1ccc(O[C@H]2CCN(CCCF)C2)cc1 [Example 191, 4-[4-(difluoromethoxy)-3-fluoro-phenyl]-5-[4-[(3S)-1-(3-fluoropropyl)pyrrolidin-3-yl]oxyphenyl]-2,3-dihydro-1-benzothiepin-8-ol] |  |  |  | 9.52 | 8.52 | 9.40 | 0.2 nM | 95% | 8.52 | 7.29 | 7.49
CCNc1ccc(C2=C(c3ccc(O[C@H]4CCN(CCCF)C4)cc3)c3ccc(O)cc3SCC2)c(F)c1 [Example 200, 4-[4-(ethylamino)-2-fluoro-phenyl]-5-[4-[(3S)-1-(3-fluoropropyl)pyrrolidin-3-yl]oxyphenyl]-2,3-dihydro-1-benzothiepin-8-ol] | 8.52 | 7.29 | 7.48 | 9.15 | 7.92 | 8.70 | 0.5 nM | 91% |  |  | 
O=C(O)c1ccc2c(c1)CCCC(c1ccc(Cl)cc1Cl)=C2c1ccc(O[C@H]2CCN(CCCF)C2)nc1 [Example 247, 6-(2,4-dichlorophenyl)-5-[6-[(3S)-1-(3-fluoropropyl)pyrrolidin-3-yl]oxy-3-pyridyl]-8,9-dihydro-7H-benzo[7]annulene-2-carboxylic acid] | 8.30 | 6.87 | 7.14 | 9.70 | 8.22 | 9.40 | 0.2 nM | 93% |  |  | 
Oc1ccc2c(c1)SCCC(c1ccc(OC(F)F)cc1F)=C2c1ccc(O[C@H]2CCN(CCCF)C2)cc1 [Example 213, 4-[4-(difluoromethoxy)-2-fluoro-phenyl]-5-[4-[(3S)-1-(3-fluoropropyl)pyrrolidin-3-yl]oxyphenyl]-2,3-dihydro-1-benzothiepin-8-ol] | 8.40 | 7.02 | 7.26 | 9.52 | 8.70 | 9.70 | 0.9 nM | 86% |  |  | 
CCOc1ccc(C2=C(c3ccc(O[C@H]4CCN(CCCF)C4)cc3)c3ccc(O)cc3SC2)c(Cl)c1 [Example 36, 3-(2-chloro-4-ethoxy-phenyl)-4-[4-[(3S)-1-(3-fluoropropyl)pyrrolidin-3-yl]oxyphenyl]-2H-thiochromen-7-ol] | 7.96 | 6.59 | 6.81 | 9.30 | 8.52 | 9.30 | 0.2 nM | 83% |  |  | 
Oc1ccc2c(c1)SCC(c1ccc(Cl)nc1F)=C2c1ccc(O[C@H]2CCN(CCCF)C2)cc1 [Example 55, 3-(6-chloro-2-fluoro-3-pyridyl)-4-[4-[(3S)-1-(3-fluoropropyl)pyrrolidin-3-yl]oxyphenyl]-2H-thiochromen-7-ol] | 7.32 | 6.01 | 6.35 | 9.15 | 8.30 | 9.52 | 0.2 nM | 88% |  |  | 
CC/C(=C(/c1ccc(O[C@H]2CCN(CCCF)C2)cc1)c1ccc2[nH]ncc2c1)c1ccc(F)cc1Cl [Example 255, 5-[(E)-2-(2-chloro-4-fluoro-phenyl)-1-[4-[(3S)-1-(3-fluoropropyl)pyrrolidin-3-yl]oxyphenyl]but-1-enyl]-1H-indazole] | 7.82 | 6.72 | 6.85 | 10.00 | 8.22 | 9.05 | 0.6 nM | 92% |  |  | 
COc1ccc(C2=C(c3ccc(O[C@H]4CCN(CCCF)C4)cc3)c3ccc(O)cc3OCC2)c(C)c1 [Example 157, 5-[4-[(3S)-1-(3-fluoropropyl)pyrrolidin-3-yl]oxyphenyl]-4-(4-methoxy-2-methyl-phenyl)-2,3-dihydro-1-benzoxepin-8-ol] | 8.70 | 7.25 | 7.44 | 9.70 | 8.40 | 9.22 | 0.2 nM | 90% |  |  | 
Cc1cc(C2=C(c3ccc(O[C@H]4CCN(CCCF)C4)cc3)c3ccc(O)cc3SCC2)ccc1Cl [Example 162, 4-(4-chloro-3-methyl-phenyl)-5-[4-[(3S)-1-(3-fluoropropyl)pyrrolidin-3-yl]oxyphenyl]-2,3-dihydro-1-benzothiepin-8-ol] |  |  |  | 9.40 | 8.30 | 9.00 | 0.8 nM | 90% | 8.40 | 7.62 | 7.72
